Laboratory results reported in patent US20230049917A1, “Pharmaceutical Composition of CASR Modulators and Methods and Uses Thereof” (Lupin Limited, priority 2019, published 2023).
Like-named read-outs stand apart in the source and are kept apart here.

Columns and labels:
[1] = cited from earlier work
[2] = Pharmacokinetic analysis after oral administration of the formulation to rats; format: in vivo; settings: male, Sprague Dawley, rat, 5 mg/kg
Procedure: Male Sprague Dawley Rats (weight 225±25 gm; aged 8 to 10 weeks) were administered orally with the formulation. Each of the tested compounds was dosed at 5 mg/kg at a dose volume of 1 mL/kg. Blood samples were collected at time points 0.25, 0.5, 1, 2, 4, 6, 8 and 24 hours and analyzed the plasma concentrations of administered compound and calculated PK parameters. The plasma concentrations of the tested compounds were measured by liquid chromatography with tandem mass spectrometry (LCMS-MS) using […] extraction method. The plasma concentration-time data was subjected to Non-Compartmental Analysis using Phoenix WinNonlin® (Version 5.3) software to assess the pharmacokinetic parameters. Peak plasma concentrations (Cmax) and time for the peak plasma concentrations (Tmax) were the observed values. The area under the concentration time curve (AUC) was calculated by linear trapezoidal rule.

[3] = CKD patients not on dialysis, week 32

SMILES | AUC(0-t) ([2]; in vivo, po) [µM·h] | Cmax ([2]; in vivo, po) [µM] | Tmax ([2]; in vivo, po) [min] | also measured
C[C@@H](NCCCc1cccc(C(F)(F)F)c1)c1cccc2ccccc12 [Cinacalcet] |  |  |  | phosphorus levels [1, 3]: 4.5 ± 1.0 mg/dL; phosphorus levels, change [1, 3]: +21.4%; serum calcium levels, frequently observed ([1]; patients with CKD not on dialysis): < 8.4 mg/dL
C[C@@H](NC[C@H]1CN(c2cc(C(=O)O)cc(C(F)(F)F)c2)CCO1)c1cccc2ccccc12 [Compound 1, 3-((S)-2-((((R)-1-(naphthalen-1-yl)ethyl)amino)methyl)morpholino)-5-(trifluoromethyl)benzoic acid] |  |  |  | AUC(0-t) ([2]; oral, dose volume 1 mL/kg, plasma, sampling to 24 hours, read-out: AUC0-1): 7.3 ± 0.5 µM·h; Cmax ([2]; oral, plasma, read-out: Cmax): 3.6 ± 1 µM; Tmax ([2]; oral, plasma, read-out: Tmax): 15 to 60 min
Cc1ccc(N2C[C@H](CCN[C@H](C)c3cccc4ccccc34)Oc3ccccc32)cc1C(=O)O.Cl [Compound 2, 2-methyl-5-((S)-2-(2-(((R)-1-(naphthalen-1-yl)ethyl)amino)ethyl)-2H-benzo[b][1,4]oxazin-4(3H)-yl)benzoic acid] | 16 ± 3 | 4.9 ± 3 | 15 | 
COc1cc([C@@H](C)NC[C@@H]2Cc3ccccc3[C@H](c3ccc(C)c(C(=O)O)c3C)C2)ccc1F.Cl [Compound 4, 3-((1R,3S)-3-((((R)-1-(4-fluoro-3-methoxyphenyl)ethyl)amino)methyl)-1,2,3,4-tetrahydronaphthalen-1-yl)-2,6-dimethylbenzoic acid] | 5.5 ± 1 | 1.5 ± 1 | 30 to 120 | 
